According to publication PMC9516332 (Frontiers in Oncology, 2022):
Like-named read-outs stand apart in the source and are kept apart here.

What was measured:
Assay in all cases: Kinase panel profiling at 1 µmol/L (MSA or IMAP), percentage inhibition
Type in all cases: biochemical
[1] = target: panel of 255 wild-type kinases (Homo sapiens, UniProt Q00526); conditions: read-out: %-inhibition CDK3/CycE1
[2] = target: panel of 255 wild-type kinases (Homo sapiens, UniProt Q9P289); conditions: read-out: %-inhibition, MST4
[3] = target: panel of 255 wild-type kinases (Homo sapiens, UniProt Q14680); conditions: read-out: %-inhibition, MELK
[4] = target: T1, panel of 255 wild-type kinases (Homo sapiens, UniProt P42680); conditions: read-out: %-inhibition at 1 µmol/L, TEC
T1 sequence (P42680 1-631): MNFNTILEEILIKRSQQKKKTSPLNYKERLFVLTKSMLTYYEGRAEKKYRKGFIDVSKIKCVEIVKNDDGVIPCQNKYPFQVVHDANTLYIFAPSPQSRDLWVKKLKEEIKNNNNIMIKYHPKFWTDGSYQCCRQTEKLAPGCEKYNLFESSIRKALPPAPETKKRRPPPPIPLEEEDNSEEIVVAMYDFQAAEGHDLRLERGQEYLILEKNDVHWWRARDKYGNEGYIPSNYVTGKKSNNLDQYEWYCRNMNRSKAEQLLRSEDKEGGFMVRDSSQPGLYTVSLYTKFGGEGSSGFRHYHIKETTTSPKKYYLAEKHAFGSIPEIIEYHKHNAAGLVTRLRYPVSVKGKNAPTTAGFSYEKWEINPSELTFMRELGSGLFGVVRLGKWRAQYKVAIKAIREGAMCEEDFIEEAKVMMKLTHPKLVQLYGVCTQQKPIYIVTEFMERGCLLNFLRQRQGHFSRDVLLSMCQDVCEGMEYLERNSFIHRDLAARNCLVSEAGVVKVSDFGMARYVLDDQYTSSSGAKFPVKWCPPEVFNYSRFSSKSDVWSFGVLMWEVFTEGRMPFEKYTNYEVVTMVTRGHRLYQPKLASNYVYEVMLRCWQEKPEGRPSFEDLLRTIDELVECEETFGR

[5] = target: panel of 255 wild-type kinases (Homo sapiens, UniProt Q16816); conditions: read-out: %-inhibition at 1 µmol/L, PHKG1
[6] = target: panel of 255 wild-type kinases (Homo sapiens, UniProt O96013); conditions: read-out: %-inhibition, PAK4
[7] = target: panel of 255 wild-type kinases (Homo sapiens, UniProt P35968); conditions: read-out: %-inhibition at 1 µmol/L, KDR
[8] = target: panel of 255 wild-type kinases (Homo sapiens, UniProt Q9BYP7); conditions: read-out: %-inhibition at 1 µmol/L, WNK3
[9] = target: panel of 255 wild-type kinases (Homo sapiens, UniProt Q8N568); conditions: read-out: %-inhibition at 1 µmol/L, DCAMKL2
[10] = target: panel of 255 wild-type kinases (Homo sapiens, UniProt Q13555); conditions: read-out: %-inhibition CaMK2γ
[11] = target: panel of 255 wild-type kinases (Homo sapiens, UniProt P16591); conditions: read-out: %-inhibition at 1 µmol/L, FER
[12] = target: panel of 255 wild-type kinases (Homo sapiens, UniProt Q9HC98); conditions: read-out: %-inhibition, NEK6
[13] = target: T2, panel of 255 wild-type kinases (Homo sapiens, UniProt Q9HBY8); conditions: read-out: %-inhibition at 1 µmol/L, SGK2
T2 sequence (Q9HBY8 1-367): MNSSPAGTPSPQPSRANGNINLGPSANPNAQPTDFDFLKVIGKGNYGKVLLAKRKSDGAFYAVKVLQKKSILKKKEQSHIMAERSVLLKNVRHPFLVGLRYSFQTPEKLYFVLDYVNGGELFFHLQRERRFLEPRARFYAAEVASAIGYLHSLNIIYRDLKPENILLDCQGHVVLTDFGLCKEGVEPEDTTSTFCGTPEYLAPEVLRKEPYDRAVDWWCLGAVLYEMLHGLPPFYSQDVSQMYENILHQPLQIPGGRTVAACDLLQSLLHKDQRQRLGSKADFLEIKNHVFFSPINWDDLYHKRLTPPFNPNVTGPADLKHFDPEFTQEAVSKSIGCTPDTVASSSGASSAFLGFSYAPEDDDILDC

[14] = target: T3, panel of 255 wild-type kinases (Homo sapiens, UniProt P51955); conditions: read-out: %-inhibition, NEK2
T3 sequence (P51955 1-445): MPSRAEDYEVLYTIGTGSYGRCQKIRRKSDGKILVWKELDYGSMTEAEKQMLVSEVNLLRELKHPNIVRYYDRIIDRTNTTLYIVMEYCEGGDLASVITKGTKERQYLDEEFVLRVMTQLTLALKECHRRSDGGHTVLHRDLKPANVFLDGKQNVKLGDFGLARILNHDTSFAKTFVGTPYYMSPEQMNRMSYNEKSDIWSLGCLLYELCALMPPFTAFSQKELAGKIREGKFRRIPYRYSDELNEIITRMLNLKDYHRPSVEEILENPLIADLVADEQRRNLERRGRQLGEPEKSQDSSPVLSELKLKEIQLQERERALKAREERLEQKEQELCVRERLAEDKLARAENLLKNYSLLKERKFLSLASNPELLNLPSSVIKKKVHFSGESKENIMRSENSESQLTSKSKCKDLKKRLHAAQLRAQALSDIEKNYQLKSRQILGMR

[15] = target: panel of 255 wild-type kinases (Homo sapiens, UniProt Q9UK32); conditions: read-out: %-inhibition at 1 µmol/L, RSK4
[16] = CDK3/CycE1 kinase assay, 1 µmol/L single concentration
[17] = MST4, 1 µmol/L single concentration
[18] = MELK, 1 µmol/L single concentration
[19] = kinase TEC, 1 µmol/L single concentration
[20] = kinase PHKG1, 1 µmol/L single concentration
[21] = PAK4, 1 µmol/L single concentration
[22] = kinase KDR, 1 µmol/L single concentration
[23] = kinase WNK3, 1 µmol/L single concentration
[24] = kinase DCAMKL2, 1 µmol/L single concentration
[25] = CaMK2γ kinase assay, 1 µmol/L single concentration
[26] = kinase FER, 1 µmol/L single concentration
[27] = NEK6, 1 µmol/L single concentration
[28] = kinase SGK2, 1 µmol/L single concentration
[29] = NEK2, 1 µmol/L single concentration
[30] = kinase RSK4, 1 µmol/L single concentration

Cc1nc(NC(=O)N2CCC[C@H]2C(N)=O)sc1-c1ccnc(C(C)(C)C(F)(F)F)c1 [alpelisib]
inhibition at 1 µM [1, 16]: -4%
inhibition at 1 µM [2, 17]: -12%
inhibition at 1 µM [3, 18]: 0.22%
inhibition at 1 µM [4, 19]: -0.644%
inhibition at 1 µM [5, 20]: -1.22%
inhibition at 1 µM [6, 21]: 0.0966%
inhibition at 1 µM [7, 22]: 8%
inhibition at 1 µM [8, 23]: -3%
inhibition at 1 µM [9, 24]: 6.52%
inhibition at 1 µM [10, 25]: 0.455%
inhibition at 1 µM [11, 26]: -1.86%
inhibition at 1 µM [12, 27]: 0.343%
inhibition at 1 µM [13, 28]: -2%
inhibition at 1 µM [14, 29]: 7.4%
inhibition at 1 µM [15, 30]: -4%

Cn1cc(-c2cc3c(N4CCN(c5ncc([C@@](C)(N)c6ccc(F)cc6)cn5)CC4)ncnn3c2)cn1 [avapritinib]
inhibition at 1 µM [1, 16]: -2.7%
inhibition at 1 µM [2, 17]: 7%
inhibition at 1 µM [3, 18]: 9%
inhibition at 1 µM [4, 19]: 16%
inhibition at 1 µM [5, 20]: -0.381%
inhibition at 1 µM [6, 21]: 8%
inhibition at 1 µM [7, 22]: 71%
inhibition at 1 µM [8, 23]: -0.0892%
inhibition at 1 µM [9, 24]: 3.65%
inhibition at 1 µM [10, 25]: -4%
inhibition at 1 µM [11, 26]: 1.71%
inhibition at 1 µM [12, 27]: -1.13%
inhibition at 1 µM [13, 28]: -4.22%
inhibition at 1 µM [14, 29]: 9%
inhibition at 1 µM [15, 30]: 7.6%

Cn1cnc2c(F)c(Nc3ccc(Br)cc3F)c(C(=O)NOCCO)cc21 [binimetinib]
inhibition at 1 µM [1, 16]: -4.57%
inhibition at 1 µM [2, 17]: 0.492%
inhibition at 1 µM [3, 18]: -1.8%
inhibition at 1 µM [4, 19]: 0.674%
inhibition at 1 µM [5, 20]: 1.77%
inhibition at 1 µM [6, 21]: -2.71%
inhibition at 1 µM [7, 22]: 15%
inhibition at 1 µM [8, 23]: -2.67%
inhibition at 1 µM [9, 24]: -13%
inhibition at 1 µM [10, 25]: -3.65%
inhibition at 1 µM [11, 26]: 4.71%
inhibition at 1 µM [12, 27]: -2.65%
inhibition at 1 µM [13, 28]: -0.294%
inhibition at 1 µM [14, 29]: 0.117%
inhibition at 1 µM [15, 30]: -0.233%

CNC(=O)c1ccc(-c2cnc3ncc(Cc4ccc5ncccc5c4)n3n2)cc1F [capmatinib]
inhibition at 1 µM [1]: -14%
inhibition at 1 µM [2]: -2.24%
inhibition at 1 µM [3]: -4%
inhibition at 1 µM [4]: 4%
inhibition at 1 µM [5]: -2.39%
inhibition at 1 µM [6]: 1%
inhibition at 1 µM [7]: 4%
inhibition at 1 µM [8]: -1.77%
inhibition at 1 µM [9]: -1.61%
inhibition at 1 µM [10]: -1.68%
inhibition at 1 µM [11]: 2.2%
inhibition at 1 µM [12]: -4%
inhibition at 1 µM [13]: -5.54%
inhibition at 1 µM [14]: 2.36%
inhibition at 1 µM [15]: 8%

COc1cc2ncnc(Nc3ccc(F)c(Cl)c3)c2cc1NC(=O)/C=C/CN1CCCCC1 [dacomitinib]
inhibition at 1 µM [1, 16]: -1.66%
inhibition at 1 µM [2, 17]: 12%
inhibition at 1 µM [3, 18]: 15%
inhibition at 1 µM [4, 19]: 20%
inhibition at 1 µM [5, 20]: 25%
inhibition at 1 µM [6, 21]: -3.66%
inhibition at 1 µM [7, 22]: 42%
inhibition at 1 µM [8, 23]: -2.62%
inhibition at 1 µM [9, 24]: 1.42%
inhibition at 1 µM [10, 25]: 2.37%
inhibition at 1 µM [11, 26]: 6.35%
inhibition at 1 µM [12, 27]: -4.7%
inhibition at 1 µM [13, 28]: -9%
inhibition at 1 µM [14, 29]: -2.41%
inhibition at 1 µM [15, 30]: 16%

C[C@H](Nc1ncnc2nc[nH]c12)c1cc2cccc(Cl)c2c(=O)n1-c1ccccc1 [duvelisib]
inhibition at 1 µM [1, 16]: -0.613%
inhibition at 1 µM [2, 17]: -3.25%
inhibition at 1 µM [3, 18]: 2.43%
inhibition at 1 µM [4, 19]: 1.84%
inhibition at 1 µM [5, 20]: -1.8%
inhibition at 1 µM [6, 21]: 0.277%
inhibition at 1 µM [7, 22]: 11%
inhibition at 1 µM [8, 23]: -0.718%
inhibition at 1 µM [9, 24]: 7.51%
inhibition at 1 µM [10, 25]: 0.463%
inhibition at 1 µM [11, 26]: -1.81%
inhibition at 1 µM [12, 27]: -1%
inhibition at 1 µM [13, 28]: -2.27%
inhibition at 1 µM [14, 29]: 9%
inhibition at 1 µM [15, 30]: -5%

COC(=O)N[C@@H](C)CNc1nccc(-c2cn(C(C)C)nc2-c2cc(Cl)cc(NS(C)(=O)=O)c2F)n1 [encorafenib]
inhibition at 1 µM [1, 16]: -2%
inhibition at 1 µM [2, 17]: -4.45%
inhibition at 1 µM [3, 18]: 4.48%
inhibition at 1 µM [4, 19]: -1.53%
inhibition at 1 µM [5, 20]: 3%
inhibition at 1 µM [6, 21]: -2.13%
inhibition at 1 µM [7, 22]: 22%
inhibition at 1 µM [8, 23]: -1.55%
inhibition at 1 µM [9, 24]: -12%
inhibition at 1 µM [10, 25]: -3.25%
inhibition at 1 µM [11, 26]: 5%
inhibition at 1 µM [12, 27]: -2.36%
inhibition at 1 µM [13, 28]: 3.5%
inhibition at 1 µM [14, 29]: 2.77%
inhibition at 1 µM [15, 30]: 4.58%

CN1CCN(c2ccc(C(=O)Nc3n[nH]c4ccc(Cc5cc(F)cc(F)c5)cc34)c(NC3CCOCC3)c2)CC1 [entrectinib]
inhibition at 1 µM [1, 16]: 5.63%
inhibition at 1 µM [2, 17]: 6%
inhibition at 1 µM [4, 19]: 97%
inhibition at 1 µM [5, 20]: 54%
inhibition at 1 µM [8, 23]: 8.51%
inhibition at 1 µM [9, 24]: 16%
inhibition at 1 µM [10, 25]: 17%
inhibition at 1 µM [11, 26]: 99%
inhibition at 1 µM [12, 27]: -1.86%
inhibition at 1 µM [13, 28]: -3.18%
inhibition at 1 µM [14, 29]: 11%

C[C@H]1Oc2cc(cnc2N)-c2c(nn(C)c2C#N)CN(C)C(=O)c2ccc(F)cc21 [lorlatinib]
inhibition at 1 µM [1, 16]: 3%
inhibition at 1 µM [2, 17]: -8%
inhibition at 1 µM [3, 18]: 4%
inhibition at 1 µM [4, 19]: 3%
inhibition at 1 µM [5, 20]: 65%
inhibition at 1 µM [6, 21]: 1.84%
inhibition at 1 µM [7, 22]: 7%
inhibition at 1 µM [8, 23]: 6%
inhibition at 1 µM [9, 24]: 74%
inhibition at 1 µM [10, 25]: 10%
inhibition at 1 µM [12, 27]: -0.382%
inhibition at 1 µM [13, 28]: 4.34%
inhibition at 1 µM [14, 29]: 10%
inhibition at 1 µM [15, 30]: -2%
